Marks after values point to notes of the source that are not given here.
System: Min mice of a familial adenomatous polyposis model (Apc gene deficient mice, C57BL/6-ApcMin/+)
Experiment: Intestinal polyp suppression test (intestinal polyp assay) in Min mice
Type: in vivo, mouse
Conditions: for Number of polyps/mouse, colon / Number of polyps/mouse, small intestine, central / Number of polyps/mouse, small intestine, distal / Number of polyps/mouse, small intestine, proximal / Number of polyps/mouse, total / Number of polyps, percentage of the result for the 0 dose (control) group, small intestine, central / Number of polyps, percentage of the result for the 0 dose (control) group, small intestine, distal / Number of polyps, percentage of the result for the 0 dose (control) group, small intestine, proximal / Number of polyps, percentage of the result for the 0 dose (control) group, colon / Number of polyps, percentage of the result for the 0 dose (control) group, total: male Min mice; for Number of polyps/mouse, colon / Number of polyps/mouse, small intestine, central / Number of polyps/mouse, small intestine, distal / Number of polyps/mouse, small intestine, proximal / Number of polyps/mouse, total: average ± SE; for Number of polyps, percentage of the result for the 0 dose (control) group, small intestine, proximal: p < 0.01 vs control
Method: The experimental animals were male Min mice of a familial adenomatous polyposis model (Apc (Adenomatous polyposis coli) gene deficient mice, C57BL/6-ApcMin/+, Jackson Laboratory, Bar Harbor, Me.). These mice were purchased at age 5 weeks, and acclimatized for 2 weeks to laboratory conditions (24±2° C., humidity 55%, 12 hours light/12 hours dark cycle, free access to feed and water) before being used in the tests. The feed was “AIN-76A” basic feed (Clea Japan).
Wild-type […] mice (from the same source) were subjected to the same test as a control.
Compound A was used as the experimental medicine. The compound was mixed to a specific concentration (400 ppm or 800 ppm) with the AIN-76A basic feed for use in the tests.
Feed comprising a specific amount of the experimental medicine mixed to a specific concentration with basic feed (AIN-76A) was administered to the experimental group mice (2 groups of 10 mice) and comparison group mice (1 group of 10 mice) for 13 weeks from age 7 weeks to age 20 weeks (natural feeding). When death was confirmed during the experiment, however, administration was naturally discontinued.
A group of 10 mice receiving basic feed (AIN-76A) without the experimental medicine added for the same length of time was set up as a control group (experimental drug non-administration group).
13 weeks after the start of the experiment the mice in all groups (excluding those which had died) were euthanized, and an intestinal polyp assay was performed as follows.
The intestines were removed from the mice in all groups, placed in phosphate buffer containing 10% formalin, and then separated into four parts: (1) the colon, (2) the proximal part of the small intestine (about 4 cm long beginning at the pylorus), (3) the central part of the small intestine (the center of the remaining half of the small intestine) and (4) the distal part of the small intestine (the distal part of the remaining half of the small intestine). Each part was opened longitudinally, and fixed flat between sheets of filter paper in phosphate buffer containing 10% formalin.
The number and size of polyps and their distribution in the intestines were counted, measured and evaluated under a stereoscopic microscope. These methods are described in the literature reference(Watanabe, K. et al., “Role of the prostaglandin E receptor subtype EP1 in colon carcinogenesis”, Cancer Res., 59, 5093-6 (1999)).

[1] = 400 ppm in AIN-76A feed for 13 weeks
[2] = 400 ppm in feed for 13 weeks, p < 0.05 vs control
[3] = 800 ppm in AIN-76A feed for 13 weeks
[4] = 800 ppm in feed for 13 weeks, p < 0.05 vs control

**Q.** Which results are given for CCOP(=O)(Cc1ccc(C(=O)Nc2ccc(Br)cc2C#N)cc1)OCC [Compound A, 4-diethoxyphosphinoylmethyl-N-(4-bromo-2-cyanophenyl)benzamide]?
**A.** Number of polyps by polyp diameter (FIG. 1) (400 ppm and 800 ppm in feed, Min mice, polyp diameter (mm)): reduction in the number of polyps of all sizes; Number of polyps/mouse, colon [1]: 0.4 ± 0.2 polyps/mouse; Number of polyps/mouse, small intestine, central [1]: 16.1 ± 3.8 polyps/mouse; Number of polyps/mouse, small intestine, distal [1]: 33.0 ± 6.5 polyps/mouse; Number of polyps/mouse, small intestine, proximal [1]: 8.5 ± 1.4 polyps/mouse; Number of polyps/mouse, total [1]: 58.0 ± 10.8 polyps/mouse; Number of polyps, percentage of the result for the 0 dose (control) group, small intestine, central (400 ppm in feed for 13 weeks): (43) percentage; Number of polyps, percentage of the result for the 0 dose (control) group, small intestine, distal (400 ppm in feed for 13 weeks): (55) percentage; Number of polyps, percentage of the result for the 0 dose (control) group, small intestine, proximal (400 ppm in feed for 13 weeks): (37)^d percentage; Number of polyps, percentage of the result for the 0 dose (control) group, colon [2]: (38)^c percentage; Number of polyps, percentage of the result for the 0 dose (control) group, total [2]: (48)^c percentage; Mice that died during the experiment (death due to bleeding from polyps) (400 ppm in feed, group of 10 Min mice, 13 weeks, 3 died in the control group): 2 mice; Number of polyps/mouse, colon [3]: 0.3 ± 0.2 polyps/mouse; Number of polyps/mouse, small intestine, central [3]: 13.8 ± 2.6 polyps/mouse; Number of polyps/mouse, small intestine, distal [3]: 30.5 ± 5.0 polyps/mouse; Number of polyps/mouse, small intestine, proximal [3]: 5.9 ± 1.0 polyps/mouse; Number of polyps/mouse, total [3]: 50.5 ± 7.8 polyps/mouse; Number of polyps, percentage of the result for the 0 dose (control) group, small intestine, proximal (800 ppm in feed for 13 weeks): (26)^d percentage; Number of polyps, percentage of the result for the 0 dose (control) group, colon [4]: (30)^c percentage; Number of polyps, percentage of the result for the 0 dose (control) group, small intestine, central [4]: (37)^c percentage; Number of polyps, percentage of the result for the 0 dose (control) group, small intestine, distal [4]: (51)^c percentage; Number of polyps, percentage of the result for the 0 dose (control) group, total [4]: (42)^c percentage; Polyp suppression effect (dosage of either 400 ppm or 800 ppm in feed, Min mice): excellent polyp suppression effect
